Patent publication US20130072459A1, “PHARMACEUTICAL COMPOSITION FOR THE PREVENTION OR THE TREATMENT OF NON-ALCOHOLIC FATTY LIVER DISEASE AND THE METHOD FOR PREVENTION OR TREATMENT OF NON-ALCOHOLIC FATTY LIVER DISEASE USING THE SAME” (priority 2010, published 2013)

Test system: high fat diet-induced simple steatosis
Test: Therapeutic effects on high fat diet-induced simple steatosis in rats
Format: in vivo, Wistar rats
Method: 6-week old male rats (Wistar rats) were stabilized and then divided into 2 groups. Animal groups were respectively given a standard diet containing 10% fat (trade name: D12450B, manufactured by Research Diets) and a high fat diet containing 60% fat (trade name: D12492, manufactured by Research Diets) for 24 weeks. […] In order to supply 10 mg/kg which is a daily target dose of tartrate of Compound 1, a diet was formulated by mixing a high fat diet and 0.03% by weight of tartrate of Compound 1. 24 weeks after a supply of each diet, animals were divided into a high fat diet-fed group (n=8), a group fed with a high fat diet+0.03% by weight of tartrate of Compound 1 (n=8), and a standard diet-fed group (n=8), followed by feeding for another 14 weeks. Then, animals were dissected and sera were separated. Then, serum ALT levels (alanine aminotransferase), GPT, (glutamic pyruvate transaminase) were measured using a blood analyzer (FIG. 4). The excised liver was homogenized in a 5(v/v) % Triton-X solution, and a triglyceride working reagent [which was prepared by mixing a free glycerol reagent (F6428, Sigma) and a triglyceride reagent (T2449, Sigma) in a ratio of 4:1(v/v)] was added thereto, followed by measurement of an absorbance at 540 nm to determine the content of triglyceride (FIG. 5). In addition, in order to observe histological fat distribution, a portion of the excised liver was fixed in a 10(v/v) % formalin solution and then a tissue sample was prepared, followed by hematoxylin & eosin(HE) staining and photographing using an image analysis program (computerized image analysis) (FIG. 6, the violet-stained portion represents a normal liver tissue, and white portion represents lipid droplets). Thereafter, an area of lipid droplets/unit area of a sample was calculated (FIG. 7).

[1] = high fat diet + 0.03% drug for 14 weeks, vs high fat diet-fed group

CC(C)(C)OC[C@@H]1C(=O)NCCN1C(=O)C[C@H](N)Cc1cc(F)c(F)cc1F [tartrate of Compound 1, (R)-4-[(R)-3-amino-4-(2,4,5-trifluorophenyl)-butanoyl]-3-(t-butoxymethyl)piperazin-2-one]
significant decrease: serum alanine aminotransferase (ALT), result in words (high fat diet 24 weeks then high fat diet + 0.03% drug (target 10 mg/kg/day) for 14 weeks) | hepatic triglyceride content in hepatic triglyceride analysis, result in words [1] | hepatic triglyceride content in histological analysis (area of lipid droplets/unit area), result in words [1]
